The values that follow come from patent US11352330B2, “Phenoxymethyl derivatives” (Hoffmann-La Roche Inc., priority 2015, dated 2022).

The experiment has as its target human ATX (Homo sapiens (Human), UniProt Q13822). Nature of the experiment: Human ATX enzyme inhibition assay (fluorescence quenching, MR121 substrate). The format is biochemical. To be noted: human His-tagged ATX 30 nM, MR121 substrate 1 μM, 30° C. The protocol:
Human ATX Enzyme Inhibition Assay
ATX inhibition was measured by a fluorescence quenching assay using a specifically labeled substrate analogue (MR121 substrate). To obtain this MR121 substrate, BOC and TBS protected 6-amino-hexanoic acid (R)-3-({2-[3-(2-{2-[2-(2-amino-ethoxy)-ethoxy]-ethoxy}-ethoxy)-propionylamino]-ethoxy}-hydroxy-phosphoryloxy)-2-hydroxy-propyl ester (Ferguson et al., Org Lett 2006, 8 (10), 2023) was labeled with MR121 fluorophore (CAS 185308-24-1, 1-(3-carboxypropyl)-11-ethyl-1,2,3,4,8,9,10,11-octahydro-dipyrido[3,2-b:2′,3′-i]phenoxazin-13-ium) on the free amine of the ethanolamine side and then, after deprotection, subsequently with tryptophan on the side of the aminohexanoic acid.
Assay working solutions were made as follows:
Assay buffer (50 mM Tris-HCl, 140 mM NaCl, 5 mM KCl, 1 mM CaCl2, 1 mM MgCl2, 0.01% Triton-X-100, pH 8.0;
ATX solution: ATX (human His-tagged) stock solution (1.08 mg/mL in 20 mM bicine, pH 8.5, 0.15 M NaCl, 10% glycerol, 0.3% CHAPS, 0.02% NaN3), diluted to 1.4-2.5× final concentration in assay buffer;
MR121 substrate solution: MR121 substrate stock solution (800 μM MR121 substrate in DMSO), diluted to 2-5× final concentration in assay buffer.
Test compounds (10 mM stock in DMSO, 8 μL) were obtained in 384 well sample plates (Corning Costar #3655) and diluted with 8 μL DMSO. Row-wise serial dilutions were made by transferring 8 μL cpd solution to the next row up to row O. The compound and control solutions were mixed five times and 2 μL were transferred to 384 well assay plates (Corning Costar #3702). Then, 15 μL of 41.7 nM ATX solution was added (30 nM final concentration), mixed five times and then incubated for 15 minutes at 30° C. 10 μL of MR121 substrate solution was added (1 μM final concentration), mixed 30 times and then incubated for 15 minutes at 30° C.
The term IC50 denotes the concentration at which inhibition is half-maximal. A high value points to weaker potency in that assay. With `Cc1cc(OCc2n[nH]c(=O)n2C)c(-c2cc(CN3CCOC3=O)ccc2F)cc1Cl` [Example B82], the IC50 stood at 8 nM.
For `COCC(=O)NCc1ccc(F)c(-c2cc(Cl)c(C)cc2OCc2n[nH]c(=O)n2C)c1` [Example B83], the IC50 worked out at 8 nM.
Then `Cn1c(COc2cc(Cl)c(C#N)cc2-c2ccccc2F)n[nH]c1=O` [Example B84], with 19 nM.
Then `Cn1c(COc2cc(Cl)c(C#N)cc2-c2cccc(F)c2)n[nH]c1=O` [Example B85], with 21 nM; and `Cc1cc(OCc2n[nH]c(=O)n2C)c(-c2cc(C#N)ccc2OC(F)(F)F)cc1Cl` [Example B86], with 49 nM.
With `Cn1c(COc2cc(Cl)c(C#N)cc2-c2cc(OCC3CCCO3)ccc2F)n[nH]c1=O` (stereo not shown) [Example B87], the IC50 was determined as 5 nM.
Then `COc1cccc(-c2cc(C#N)c(Cl)cc2OCc2n[nH]c(=O)n2C)c1F` [Example B88], with 1 nM.
For `CC(C)Oc1ccc(F)c(-c2cc(C#N)c(Cl)cc2OCc2n[nH]c(=O)n2C)c1` [Example B89], the IC50 came out at 4 nM.
To `COc1cccc(-c2cc(Cl)c(C)cc2OCc2n[nH]c(=O)n2C)c1F` [Example B90] belongs 7 nM; to `Cn1c(COc2cc(Cl)c(C#N)cc2-c2cccc(F)c2F)n[nH]c1=O` [Example B91], 4 nM.
Then `Cc1cc(OCc2n[nH]c(=O)n2C)c(-c2cc(OC3CC3)ccc2F)cc1Cl` [Example B92], with 1 nM; and `Cn1c(COc2cc(Cl)c(C#N)cc2-c2cc(Cl)ccc2F)n[nH]c1=O` [Example B93], with 5 nM; and `Cn1c(COc2cc(Cl)c(C#N)cc2-c2cc(F)ccc2F)n[nH]c1=O` [Example B94], with 5 nM.
Then `Cn1c(COc2cc(Cl)c(C#N)cc2-c2cc(OC3CC3)ccc2F)n[nH]c1=O` [Example B95], with 6 nM; and `Cn1c(COc2cc(Cl)c(C#N)cc2-c2cc(C(F)(F)F)ccc2F)n[nH]c1=O` [Example B96], with 37 nM; and `Cn1c(COc2cc(Cl)c(C#N)cc2-c2cc(OC(F)(F)F)ccc2F)n[nH]c1=O` [Example B97, 2-chloro-5-[2-fluoro-5-(trifluoromethoxy)phenyl]-4-[(4-methyl-5-oxo-1H-1,2,4-triazol-3-yl)methoxy]benzonitrile], with 8 nM.
Turning to `Cn1c(COc2cc(Cl)c(C#N)cc2-c2cc(OCC(F)(F)F)ccc2F)n[nH]c1=O` [Example B98, 2-chloro-5-[2-fluoro-5-(2,2,2-trifluoroethoxy)phenyl]-4-[(4-methyl-5-oxo-1H-1,2,4-triazol-3-yl)methoxy]benzonitrile], the IC50 was determined as 9 nM.
Then `Cc1cc(OCc2ccc(=O)[nH]n2)c(C(C)C)cc1Cl` [Example C1, 3-[(4-Chloro-5-methyl-2-propan-2-ylphenoxy)methyl]-1H-pyridazin-6-one], with 19 nM; and `Cc1cc(OCc2ccc(=O)[nH]n2)c(C2CC2)cc1Cl` [Example C2, 3-[(4-Chloro-2-cyclopropyl-5-methylphenoxy)methyl]-1H-pyridazin-6-one], with 22 nM; and `CC(C)c1cc(Cl)c(F)cc1OCc1ccc(=O)[nH]n1` [Example C3, 3-[(4-chloro-5-fluoro-2-propan-2-ylphenoxy)methyl]-1H-pyridazin-6-one], with 4 nM.
For the compound `Cc1cc(C(C)C)c(OCc2ccc(=O)[nH]n2)cc1Cl` [Example C4, 3-[(5-chloro-4-methyl-2-propan-2-ylphenoxy)methyl]-1H-pyridazin-6-one], 3 nM corresponded to half-maximal inhibition (IC50). The IC50 values of the last two compounds are within 1.5-fold of each other.
Then `Cc1cc(OCc2ccc(=O)[nH]n2)c(C2CCC2)cc1Cl` [Example C5, 3-[(4-chloro-2-cyclobutyl-5-methylphenoxy)methyl]-1H-pyridazin-6-one], with 1 nM; and `Cc1cc(OCc2ccc(=O)[nH]n2)c(C2CCCCC2)cc1Cl` [Example C6, 3-[(4-chloro-2-cyclohexyl-5-methylphenoxy)methyl]-1H-pyridazin-6-one], with 7 nM; and `Cc1cc(OCc2ccc(=O)[nH]n2)c(C2CCOCC2)cc1Cl` [Example C7, 3-[[4-chloro-5-methyl-2-(oxan-4-yl)phenoxy]methyl]-1H-pyridazin-6-one], with 22 nM.
To `Cc1cc(OCc2ccc(=O)[nH]n2)c(C(C)(C)C)cc1Cl` [Example C8, 3-[(2-tert-butyl-4-chloro-5-methylphenoxy)methyl]-1H-pyridazin-6-one] belongs 5 nM; to `Cc1cc(OCc2ccc(=O)[nH]n2)c(C(C)(C)C#N)cc1Cl` [Example C9, 2-[5-chloro-4-methyl-2-[(6-oxo-1H-pyridazin-3-yl)methoxy]phenyl]-2-methylpropanenitrile], 46 nM; to `COc1ncccc1-c1cc(Cl)c(C)cc1OCc1ccc(=O)[nH]n1` [Example C10], 32 nM.
`Cc1cc(OCc2ccc(=O)[nH]n2)c(-c2cccnc2O)cc1Cl` [Example C11] registered an IC50 of 5980 nM.
To `N#Cc1cc(-c2ccccc2)c(OCc2ccc(=O)[nH]n2)cc1Cl` [Example C12] belongs 3 nM; to `Cc1cc(C(C)(C)C)c(OCc2ccc(=O)[nH]n2)cc1C#N` [Example C13], 40 nM.
To `N#Cc1cc(-c2cc(OC3CC3)ccc2F)c(OCc2ccc(=O)[nH]n2)cc1Cl` [Example C14] belongs 5 nM; to `CC(C)(C)c1cc(S(C)(=O)=O)ccc1OCc1n[nH]c2ccccc12` [Example D1], 245000 nM; to `Cc1cc(OCc2n[nH]c3ccccc23)c(C(C)C)cc1Cl` [Example D2, 3-[(4-Chloro-5-methyl-2-propan-2-ylphenoxy)methyl]-1H-indazole], 14 nM.
To `Cc1cc(OCc2n[nH]c3ncccc23)c(C(C)(C)C)cc1Cl` [Example D3, 3-[(2-tert-Butyl-4-chloro-5-methylphenoxy)methyl]-1H-pyrazolo[3,4-b]pyridine] belongs 4 nM; to `Cc1cc(OCc2n[nH]c3ncccc23)c(C(C)(C)C)cc1C#N` [Example D4], 9 nM.
Compound `Cc1cc(OCc2n[nH]c3ncccc23)c(-c2ccno2)cc1Cl` [Example D5] returned an IC50 of 1 nM. This IC50 is about 9-fold lower than that of the compound before.
Then `Cc1cc(OCc2n[nH]c3nc(F)ccc23)c(C(C)(C)C)cc1Cl` [Example D6, 3-[(2-tert-Butyl-4-chloro-5-methylphenoxy)methyl]-6-fluoro-1H-pyrazolo[3,4-b]pyridine], with 19 nM; and `Cc1cc(OCc2n[nH]c3nc(NCCO)ccc23)c(C(C)(C)C)cc1Cl` [Example D7, 2-[[3-[(2-tert-Buty-4-chloro-&-methylphenoxy)methyl]-1H-pyrazolo[3,4-b]pyridin-6-yl]amino]ethanol], with 12 nM; and `Cc1cc(OCc2n[nH]c3nc(N(C)CCO)ccc23)c(C(C)(C)C)cc1Cl` [Example D8, 2-[[3-[(2-tert-Butyl-4-chloro-5-methylphenoxy)methyl]-1H-pyrazolo[3,4-b]pyridin-6-yl]-methylamino]ethanol], with 6 nM.
To `Cc1cc(OCc2n[nH]c3ncccc23)c(C(C)(C)C)cc1S(C)(=O)=O` [Example D9] belongs 215 nM.
To `Cc1cc(OCc2n[nH]c3ccccc23)c(C(C)(C)C)cc1S(C)(=O)=O` [Example D10] belongs greater than 82000 nM; to `CC(C)(C)c1cc(Cl)c(F)cc1OCc1n[nH]c2nc(NCCO)ccc12` [Example D11], 4.5 nM.
The compound `CC(C)(C)c1cc(Cl)c(F)cc1OCc1n[nH]c2nc(F)ccc12` [Example D12] had an IC50 of 1 nM.
`Cc1cc(OCc2n[nH]c3nc(OCCO)ccc23)c(C(C)(C)C)cc1Cl` [Example D13, 2-[[3-[(2-t-Butyl-4-chloro-&-methylphenoxy)methyl]-1H-pyrazolo[3,4-b]pyridin-6-yl]oxy]ethanol] had a concentration for half-maximal inhibition (IC50) of 13200 nM.
Turning to `CN(CCO)c1ccc2c(COc3cc(F)c(Cl)cc3C(C)(C)C)n[nH]c2n1` [Example D14], half-maximal inhibition (IC50) required 13 nM.
To `Cc1cc(OCc2n[nH]c3nc(OCC(O)CO)ccc23)c(C(C)(C)C)cc1Cl` (stereo not shown) [Example D15, 3-[[3-[(2-tert-Butyl-4-chloro-5-methylphenoxy)methyl]-1H-pyrazolo[3,4-b]pyridin-6-yl]oxy]propane-1,2-diol] belongs 6 nM.
To `COCCNC(=O)c1cccc(-c2cc(Cl)c(C)cc2OCc2n[nH]c3ncccc23)c1` [Example D16] belongs 18 nM; to `Cc1cc(OCc2n[nH]c3ncccc23)c(-c2cccc(C(=O)N3CCOCC3)c2)cc1Cl` [Example D17, [3-[5-Chloro-4-methyl-2-(1H-pyrazolo[3,4-b]pyridin-3-ylmethoxy)phenyl]phenyl]-morpholin-4-ylmethanone], 2 nM.
To `Cc1cc(OCc2n[nH]c3ncccc23)c(-c2cccc(C(=O)N(C)C)c2)cc1Cl` [Example D18] belongs 17 nM.
